We go through 15 compounds from US4703055A, “Benzamides and therapeutic use thereof” (Societe d'Etudes Scientifiques et Industrielles de …, priority 1985, dated 1987).

Counter-ions that a name gives are not always drawn. Like-named read-outs stand apart in the source and are kept apart here.

Data set [1] is described as follows: in vivo. The conditions noted are these: mouse, male mice, intravenous, as base, read-out: LD50 in mg/kg (base) intravenously. The method, then: The compounds according to the invention were the subject of a toxicological study to determine the lethal doses (LD50) in male mice, the compounds being administered intravenously. Metoclopramide was employed as a standard. The compounds of […] were tested.
Table (I) sets out the values with respect to said (LD50) tests.

In data set [2] the test system is stereotyped movements induced by apomorphine. Briefly: Antagonism of stereotyped movements induced by apomorphine in rats (central antidopaminergic effect). In kind it is in vivo. The procedure: Another pharmacological study was conducted to determine the central antidopaminergic effects of the compounds of the invention, by evaluating the power of their antagonistic effect in regard to the stereotyped movements induced by apomorphine in two different doses (1.25 mg/kg/IV and 0.5 mg/kg/SC) in rats. The tests were conducted according to conventional procedures.

For data set [3] the following is noted: in vivo, sc.
A further data set is described as follows: Solubility of crystals. In kind it is physicochemical.
Data set [4] is described as follows: in vivo. The note with it: sc.
Setting [5] is: Rattus norvegicus, ip, I.P., at 64 mg/kg, read-out: inhibitor effect on stereotypies in regard to apomorphine, Intraperitoneal (I.P).
Where [6] appears, read: I.P., at 64 mg/kg, result in words.
The mark [7] stands for this setting: Rattus norvegicus, ip, I.P., read-out: inhibitor effect on stereotypies in regard to apomorphine, Intraperitoneal (I.P).

As for `CCN1CCN=C1CNC(=O)c1cc(Cl)c(N)cc1O` [Example 12, N-[(1-ETHYL 2-IMIDAZOLIN-2-YL)METHYL]2-HYDROXY 4-AMINO 5-CHLOROBENZAMIDE HYDROCHLORIDE], the LD50 in the data set “in vivo [1]” is 59.3 mg/kg. In addition, the inhibition in vivo at 54 mg/kg in data set [2] (Rattus norvegicus, ip, I.P., at 54 mg/kg, read-out: inhibitor effect on stereotypies in regard to apomorphine, Intraperitoneal (I.P)) came out at 2%. Besides, the “Stereotypies in regard to apomorphine, Subcutaneous (S.C.)” value (shortened to “Stereotypies in regard … (S.C.)”) in data set [2] (S.C., at 200 mg/kg) is “inactive”. The “Cataleptic Activity (Subcutaneous)” value in data set [3] (200 mg/kg) is “inactive”.
Regarding `COc1cc(N)c(Cl)cc1C(=O)NCC1=NCCN1CC1=CCCCC1` [Example 13, N-[1-CYCLOHEXEN-1-YL-METHYL)2-(IMIDAZOLIN-2-YL)METHYL]2-METHOXY 4-AMINO 5-CHLOROBENZAMIDE], the LD50 in “in vivo [1]” is 61.6 mg/kg. Moreover, in data set [2] (setting [5]), the inhibition in vivo at 64 mg/kg came out at 18%. For the same compound, the “Stereotypies in regard … (S.C.)” value in data set [2] (S.C., at 200 mg/kg) is “inactive”. Besides, the “Cataleptic Activity (Subcutaneous)” value in data set [3] (200 mg/kg) was “inactive”.
As for `C=CCN1CCN=C1CNC(=O)c1cc(Cl)c(N)cc1OC` [Example 2, N-[(1-ALLYL 2-IMIDAZOLIN-2-YL)METHYL] 2-METHOXY 4-AMINO 5-CHLOROBENZAMIDE], the LD50 in “in vivo [1]” worked out at 31.8 mg/kg. Further, in data set [3] (200 mg/kg), the “Cataleptic Activity (Subcutaneous)” value was “inactive”.
On to `COc1cc(N)c(Cl)cc1C(=O)NCC1=NCCN1C` [Example 8, N-[(1-METHYL 2-IMIDAZOLIN-2-YL)METHYL]2-METHOXY 4-AMINO 5-CHLOROBENZAMIDE HYDROCHLORIDE], for which, in data set [2] (setting [5]), the inhibition in vivo at 64 mg/kg was determined as 8%. In addition, the “Stereotypies in regard … (S.C.)” value in data set [2] (S.C., at 200 mg/kg) is “inactive”. Besides, in data set [3] (200 mg/kg), the “Cataleptic Activity (Subcutaneous)” value was “inactive”.
Take `COc1cc(N)c(Cl)cc1C(=O)NCC1=NCCN1` [Example 10, N-[(2-IMIDAZOLIN-2-YL)METHYL] 2-METHOXY 4-AMINO 5-CHLOROBENZAMIDE NITRATE]: the LD50 in the data set “in vivo [1]” was 38.4 to 41.9 mg/kg. Moreover, the inhibition in vivo at 64 mg/kg in data set [2] (setting [5]) worked out at 4%. For the same compound, the “Stereotypies in regard … (S.C.)” value in data set [2] (S.C., at 100 mg/kg) is “inactive”. Also, the “Cataleptic Activity (Subcutaneous)” value in data set [3] (200 mg/kg) is “inactive”.
Regarding `CCN1CC(C)(C)N=C1CNC(=O)c1cc(Cl)c(N)cc1OC` [Example 11, N-[(1-ETHYL 4-DIMETHYL 2-IMIDAZOLIN-2-YL)METHYL]2-METHOXY 4-AMINO 5-CHLOROBENZAMIDE], the LD50 in the data set “in vivo [1]” was determined as 30.4 mg/kg. For the same compound, the “Stereotypies in regard to apomorphine, Intraperitoneal (I.P)” value (shortened to “Stereotypies in regard … (I.P)”) in data set [2] (setting [6]) is “inactive”. Moreover, the “Stereotypies in regard … (S.C.)” value in data set [2] (S.C., at 200 mg/kg) is “inactive”. In data set [3] (200 mg/kg), the “Cataleptic Activity (Subcutaneous)” value is “inactive”.
In the case of `CCN1CCN=C1C(C)NC(=O)c1cc(Cl)c(N)cc1OC` (stereo not drawn) [Example 14, N-[1-(ethyl 2-imidazolin-2-yl)ethyl]2-methoxy 4-amino 5-chlorobenzamide], in “in vivo [1]”, the LD50 was found to be 14.6 mg/kg. Further, the “Stereotypies in regard … (I.P)” value in data set [2] (I.P., at 40 mg/kg) is “inactive”. For the same compound, in data set [2] (S.C., at 80 mg/kg), the “Stereotypies in regard … (S.C.)” value was “inactive”. Besides, in data set [3] (80 mg/kg), the “Cataleptic Activity (Subcutaneous)” value is “inactive”.
`COc1cc(N)c(Cl)cc1C(=O)NCC1=NCCN1CC1CC1` [Example 4, N-[(1-CYCLOPROPYLMETHYL 2-IMIDAZOLIN-2-YL)METHYL] 2-METHOXY 4-AMINO 5-CHLOROBENZAMIDE]: the inhibition in vivo at 32 mg/kg in data set [2] (setting [7]) was determined as 26%. For the same compound, in data set [2] (S.C., at 100 mg/kg), the “Stereotypies in regard … (S.C.)” value is “inactive”. Besides, in data set [3] (200 mg/kg), the “Cataleptic Activity (Subcutaneous)” value is “inactive”.
In the case of `CCN1CCN=C1CNC(=O)c1cc(Cl)c(N)cc1OC` [Example 1, N-[(1-ETHYL 2-IMIDAZOLIN-2-YL)METHYL] 2-METHOXY 4-AMINO 5-CHLOROBENZAMIDE], the LD50 in the data set “in vivo [1]” is 27.1 to 27.2 mg/kg. The “Stereotypies in regard … (I.P)” value in data set [2] (I.P., at 50 mg/kg) is “inactive”. Moreover, the “Stereotypies in regard … (S.C.)” value in data set [2] (S.C., at 200 mg/kg) was “inactive”. For the same compound, the solubility in chloroform entry in the data set “Solubility of crystals” (chloroform) is “highly soluble”. The “solubility in dilute acetic acid” value in “Solubility of crystals” (dilute acetic acid) is on record as “soluble”. For the same compound, the “Cataleptic Activity (Subcutaneous)” value in data set [3] (200 mg/kg) is “inactive”.
Regarding `CCN1CC(C)N=C1CNC(=O)c1cc(Cl)c(N)cc1OC` (stereo not drawn) [Example 9, N-[(1-ETHYL 4-METHYL 2-IMIDAZOLIN-2-YL)METHYL] 2-METHOXY 4-AMINO 5-CHLOROBENZAMIDE], in data set [2] (setting [5]), the inhibition in vivo at 64 mg/kg came out at 5%. Moreover, the “Stereotypies in regard … (S.C.)” value in data set [2] (S.C., at 100 mg/kg) was “inactive”. Also, the “Cataleptic Activity (Subcutaneous)” value in data set [3] (200 mg/kg) is “inactive”.
As to `CCN(CC)CCNC(=O)c1cc(Cl)c(N)cc1OC` [METOCLOPRAMIDE, Metoclopramide, reference compound], in the data set “in vivo [1]”, the LD50 is 37.9 mg/kg. Moreover, the ED50 in data set [2] (Rattus norvegicus, ip, I.P., read-out: ID50, stereotypies in regard to apomorphine, Intraperitoneal (I.P)) lay in the range of 2 to 2.6 mg/kg; in data set [2] (Rattus norvegicus, sc, S.C., read-out: ID50, stereotypies in regard to apomorphine, Subcutaneous (S.C.)), 15 to 15.2 mg/kg. Moreover, the “antagonism of apomorphine stereotypies (in words)” value in data set [2] (same conditions) is “marked stereotypy inhibitor capacity”. Besides, the TD50 in “in vivo [4]” was in the range of 30 to 38 mg/kg.
`CCN1CCN=C1CN(C)C(=O)c1cc(Cl)c(N)cc1OC` [Example 7, N-METHYL N-[(1-ETHYL 2-IMIDAZOLIN-2-YL)METHYL] 2-METHOXY 4-AMINO 5-CHLOROBENZAMIDE METHANE SULPHONATE]: the LD50 in the data set “in vivo [1]” lay within 23.4 to 24.4 mg/kg. Further, in data set [2] (setting [6]), the “Stereotypies in regard … (I.P)” value was “inactive”. Besides, the “Stereotypies in regard … (S.C.)” value in data set [2] (S.C., at 200 mg/kg) is “inactive”. Also, the “Cataleptic Activity (Subcutaneous)” value in data set [3] (200 mg/kg) was “inactive”.
Take `COc1cc(N)c(Cl)cc1C(=O)NCC1=NCCN1Cc1ccccc1` [Example 3, N-[(1-benzyl 2-imidazolin-2-yl)methyl] 2-methoxy 4-amino 5-chlorobenzamide Hydrochloride]: the LD50 in the data set “in vivo [1]” lay in the range of 47.8 to 48.5 mg/kg. Besides, the inhibition in vivo at 64 mg/kg in data set [2] (setting [5]) was determined as 19%. Moreover, in data set [2] (S.C., at 200 mg/kg), the “Stereotypies in regard … (S.C.)” value is “inactive”. Further, the “Cataleptic Activity (Subcutaneous)” value in data set [3] (200 mg/kg) was “inactive”.
In the case of `CCN1CCN=C1CNC(=O)c1cc(Br)c(N)cc1OC` [Example 6, N-[(1-ETHYL 2-IMIDAZOLIN-2-YL)METHYL] 2-METHOXY 4-AMINO 5-BROMOBENZAMIDE], in data set [2] (setting [7]), the inhibition in vivo at 32 mg/kg was found to be 20%. Moreover, in data set [2] (S.C., at 200 mg/kg), the “Stereotypies in regard … (S.C.)” value is “inactive”. Further, the “Cataleptic Activity (Subcutaneous)” value in data set [3] (100 mg/kg) is “inactive”.
Regarding `C=CCOc1cc(N)c(Cl)cc1C(=O)NCC1=NCCN1CC` [Example 5, N-[(1-ETHYL 2-IMIDAZOLIN-2-YL)METHYL] 2-ALLYLOXY 4-AMINO 5-CHLOROBENZAMIDE], the LD50 in the data set “in vivo [1]” is 25.5 to 26.1 mg/kg. For the same compound, the inhibition in vivo at 32 mg/kg in data set [2] (setting [7]) came out at 8%. Besides, in data set [2] (S.C., at 200 mg/kg), the “Stereotypies in regard … (S.C.)” value was “inactive”. Also, the “Cataleptic Activity (Subcutaneous)” value in data set [3] (200 mg/kg) was “inactive”.
